Assay: Visual dissolution of ibuprofen in SEDDS pre-concentrate
Type: physicochemical
Description: The medium chain fatty acid esters and oil were weighed into a 2000 mL glass beaker. Subsequently, a magnetic stirrer was added to the beaker. The medium chain fatty acid esters and oil were blended to uniformity for 5 minutes with the magnetic stirrer set at 5. […] […] The pre-concentrate was observed 24 hours later to ensure that the ibuprofen was still dissolved.

Question: Which “Time ibuprofen remained dissolved in the pre-concentrate” value (room temperature) does the source give for `CC(C)Cc1ccc(C(C)C(=O)O)cc1` (centres unmarked) [Ibuprofen, ibuprofen] here?
Answer: at least 24 hours

Question: What about the “Ibuprofen dissolved in the pre-concentrate components” value (with heating) of the same compound?
Answer: about 15.0%
